Source: EP0319986B1, “Anti-plasmin depressant” (NIPPON SHINYAKU COMPANY, LIMITED, priority 1987, dated 1989)

What was measured:
α2-PI = α2-PI activity in plasma of Beagle dogs after consecutive intravenous administration (S-2251); format: in vivo; conditions: 30 mg/kg intravenous, consecutive 7 days, activity prior to administration = 100%, n=3
Experimental: Three (3) male Beagle dogs were used for the control group and the administered group, respectively, as animals to be administered.
A test sample (Compound No. 2) was dissolved in a concentration of […] 0.1 ml, using 0.1 M phosphage buffer (pH 7.2). After dissolution, the solution was sterilized by filtration through a sterile filter (pore size, 0.2 µm) and then 0.3 ml of the solution was administered per 1 kg of body weight (30 mg/kg). The administration was made through the right front limb vein for consecutive 7 days. Collected blood was mixed with 3.8% sodium citrate in a ratio of 1 : 9 by volume. By centrifugation at 3000 rpm for 15 minutes, plasma was isolated.
The α2-PI activity was measured as an inhibition activity against decomposition of plasmin with the synthetic chromogenic substrate S-2251. The results of measurement are shown as change in inhibition activity after administration based on 100% of the plasmin inhibition activity prior to administration of the test sample (Table 2). The sample number in each group was 3 samples.
The α2-PI activity was obviously depressed by consecutive administration of the test compound in a dose of 30 mg/kg.

fibrin clot = assay: Lysis by urokinase of 125I-fibrin clots formed from plasma of treated Beagle dogs; format: in vivo; conditions: plasma 4 Days After Administration of 30 mg/kg once a day, 37°C, 12 hours, n=3
Experimental: A test sample (Compound No. 2) was consecutively administered to Beagle dogs in a dose of 30 mg/kg once a day. Plasma was isolated prior to and 4 days after the administration. The α2-PI activity in plasma was measured and at the same time, fibrin clot was formed in vitro using the plasma. When urokinase as a thrombolytic agent was acted on the fibrin clot, a degree of lysis was compared between plasma prior to the administration and plasma 4 days after the administration.
To 300 µl of the isolated plasma, 40 µl of ^125I-fibrinogen (0.1 mci/ml) was added and 50 µl each of the mixture was dispensed in a test tube. 5 µl each of a solution mixture of 25 U/ml thrombin and 0.5 M calcium chloride was added to each test tube, which was incubated at 37°C for 30 minutes to prepare fibrin clots. Solutions of 15 and 30 U/ml of urokinase in 2% albumin solution and the resulting solution ware charged in each test tube by 1 ml each.
After incubating at 37°C for 12 hours, 25 µl of the supernatant was collected in an RAI tube and ^125I-fibrin decomposition products isolated in the supernatant were measured with a γ-counter. The sample number was 3 in each group.

[1] = test system: CPAE (calf pulmonary artery endothelia); assay: Thrombolytic test in vitro: CPAE culture supernatant on fibrin plate, lysis circle; format: cell-based; conditions: 5 µl of 0.2 mg/ml compound solution per well of CPAE cells, 72 hours; 5 µl supernatant on fibrin plate with plasminogen, 4 hours; 4 mm or more = thrombolytic ability induced
Experimental: Thrombolytic activity-inducing ability in the established vascular endothelial cell culture system was examined using CPAE (calf pulmonary artery endothelia).
[…] cells were purchased from Dainippon Pharmaceutical Co., Ltd., Department of Laboratory Products. CPAE cells were subcultured in 10% FCS-Eagle MEM medium charged in a culture flask of 25 cm^2. From the cell suspension fractionated upon subculture, 0.1 ml was transferred into a test tube with a sterilized pipette. Then, the cell suspension was diluted to 10 fold with 0.9 ml of Trypan Blue solution and a cell count was counted with a cell counter. After diluting with 10% FCS-Eagle MEM medium so as to have a cell count of 2 x 10^5 cells/ml, 100 µl each/well, namely, 2 x 10^4 cells/well, of the dilution was dispensed in a 96 well microtiter plate (manufactured by Corning) with a micropipette. The plate was incubated at 37°C in 5% CO2.
The compound used according to the present invention was dissolved in medium in 0.2 mg/ml; the compound that was insoluble in the medium was dissolved in less than 1% of DMSO and the resulting solution was aseptically filtered through a filter; 5 µl of the solution was added to the well with a sterilized micropipette 24 hours after onset of the incubation. After culturing at 37°C for 72 hours in 5% CO2, the collected culture supernatant was provided for measurement.
The measurement was performed as follows. Plasminogen, 5 µl, was charged in a well of fibrin plate (manufactured by Kitazato institute), which was allowed to stand until diffusion was completed. After diffusion, 5 µl of the supernatant was charged and then put in a carbon dioxide gas incubator of 37°C. Four hours after, evaluation was made by formation of a transparent lysis circle by fibrinolysis.
In the case of forming a circle of 4 mm or more due to fibrinolysis, it was judged that thrombolytic ability of CPAE cells was induced.
After the fibrinolytic activity was checked over, the well was fixed with 2.5% of glutaraldehyde in a final concentration. Then, the solution was discarded and the system was washed with PBS. After washing, moisture was removed. After staining with 100 µl of 0.1% crystal violet and allowing stand for 2 to 3 minutes, the system was washed with running water. After an excess of the staining solution was washed out, moisture was removed and the dye bound to the cells was eluted by 100 µl of methanol. Using multiscanning (Titertech), measurements were performed at a wavelength of 580 nm in accordance with the ABS method and the matrix method to confirm that the cells were not injured.

[2] = test system: urokinase type plasminogen activator; assay: Fibrin autography of CPAE culture solution after SDS-polyacrylamide gel electrophoresis; format: cell-based, calf; conditions: culture solution of CPAE cells added with compound; lysis at the position of molecular weight of urokinase type plasminogen activator
Description: It has been clarified that the compounds used according to the present invention are capable of inducing fibrinolytic activity in CPAE cells. In order to verify by what substance in addition to the α2-PI lowering activity, this fibrinolytic activity is induced, analysis was made on the culture solution added with Compound No. 2 out of the compounds used according to the present invention, by means of fibrin autography.
By SDS-polyacrylamide gel using 10% gel, this culture solution and t-PA (tissue plasminogen activator) and urokinase were subjected to electrophoresis. After the electrophoresis, the gel was treated with 2.5% Triton X-100, which was inoculated on agar plate added with fibrinogen, thrombin and plasminogen. A place of fibrin which caused lysis was confirmed in an incubator of 37°C in 5% CO2.

in vivo = conditions: mouse
Experimental: Four (4) ddY strain male mice of 6 week age were used for each group of the test sample.
In intravenous administration, each sample was dissolved in 0.9% physiological saline and the solution was administered through the tail vein. In intraperitoneal administration, each sample was suspended in 0.5% CMC-physiological saline and 0.1 ml of the suspension per […] of mouse body weight was intraperitoneally administered. In oral administration, each sample was suspended in 0.5% CMC-physiological saline and 0.2 ml of the suspension per […] administered.
Observation was made immediately after the administration. After observation for 1 week after the administration, the mice was sacrificed with chloroform and subjected to autopsy.

CN1C[C@H](O)[C@@H](O)[C@H](O)[C@H]1CO [Compound No. 2, N-methylmoranoline]
α2-PI activity (%) (α2-PI; Day 1): 95% | α2-PI activity (%) (α2-PI; Day 2): 83% | α2-PI activity (%) (α2-PI; Day 3): 84% | α2-PI activity (%) (α2-PI; Day 4): 76% | α2-PI activity (%) (α2-PI; Day 5): 75% | α2-PI activity (%) (α2-PI; Day 6): 86% | α2-PI activity (%) (α2-PI; Day 7): 89% | Rate of Lysis of Fibrin Clot (%) (fibrin clot; Urokinase Activity 0 U): 21.5% | Rate of Lysis of Fibrin Clot (%) (fibrin clot; Urokinase Activity 15 U): 63.8% | Rate of Lysis of Fibrin Clot (%) (fibrin clot; Urokinase Activity 30 U): 93.7% | Diameter (mm) of the circle due to fibrinolysis [1]: 7.9 mm | Induction of urokinase type plasminogen activator in CPAE (fibrin autography) [2]: strongly induced production of urokinase type plasminogen activator | LD50 at 168 h (in vivo; ip): 10000 mg/kg | LD50 at 168 h (in vivo; iv): 5090 mg/kg | LD50 at 168 h (in vivo; po): 10000 mg/kg
